In patent US20030073672A1, “Method for treating allergies using substituted pyrazoles” (priority 2001, published 2003):

Columns and labels:
[1] = system: human T cell proliferative responses to house dust mite extracts (Der p, Der f) in PBMC; assay: Ex vivo human T cell-proliferation assay, house dust mite extracts; type: cell-based; conditions: seven days; for human T cell proliferative responses to Der f: PBMC from an allergy donor, Der f extract, titrated doses of compound, FIG. 3
Text: This proliferation consisted primarily of allergen-specific CD4 T cells.

[2] = system: T cell proliferative responses induced by ConA in PBMC; assay: Ex vivo human T cell-proliferation assay, ConA control; type: cell-based; conditions: PBMC of allergic donors, a pan-T cell mitogen
Text: Reagents. […] Cell culture.

[3] = system: human T cell proliferative responses to ragweed extracts (short, giant) in PBMC; assay: Ex vivo human T cell-proliferation assay, ragweed extracts; conditions: PBMC of ragweed-allergic donors, short and giant ragweed extracts, FIG. 2B
[4] = system: invariant chain (Ii) degradation, p10Ii fragment, in PBMC from human blood; assay: Monitoring cathepsin S inhibition in human blood (p10Ii Western blot); type: cell-based; conditions: incubation for 24 h, SDS-PAGE / Western blot
Description: The effect of in vivo administration of cathepsin S inhibitors, in a clinical trial setting, can be monitored by measuring accumulation of an intermediate degradation product of invariant chain (Ii), i.e. the p10Ii fragment, in blood of dosed subjects. After administration of a cathepsin inhibitor for a certain period of time, for example, between 0.01 and 50 mg/kg/day, to result in a blood concentration of between 1 nM-10 μM, for 16-30 h, blood is drawn and white blood cells are purified, e.g. either by lysis of red blood cells or by a Ficoll-Hypaque gradient centrifugation. Whole cell lysates of WBC are then made and analyzed by either a Western blot assay or an ELISA assay. For the Western blot assay, cell lysates are first resolved on SDS-PAGE gels. After transferring to nitrocellulose membranes, Ii and its intermediate degradation products, including the p10Ii, can be detected using a mouse mAb against Ii, e.g. Pin.1, or rabbit polyclonal antibodies specific for the C-terminus of the p10Ii fragment or against the entire p10Ii fragment. For ELISA assay, a pair of antibodies against Ii, including Pin1.1, and a rabbit polyclonal antibody or a mouse monoclonal antibody specific for p10Ii, can be used. The same assay can also be applied to monitor the effect of cathepsin S inhibitors in vivo in animal studies, for example in monkeys, dogs, pigs, rabbits, guinea pigs, and rodents.

[5] = system: allergic volunteers; assay: Monitoring in vivo inhibition of allergenic response (cutaneous reactions); conditions: allergens deposited subcutaneously

N#Cc1ccccc1N1CCN(CC(Cn2nc(-c3ccc(I)cc3)c3c2CCN(C(N)=O)C3)OC(N)=O)CC1 (stereo not shown) [Example 11, Carbamic acid 1-[5-carbamoyl-3-(4-iodo-phenyl)-4,5,6,7-tetrahydro-pyrazolo[4,3-c]pyridin-1-ylmethyl]-2-[4-(2-cyano-phenyl)-piperazin-1-yl]-ethyl Ester]
human T cell proliferative responses to Der f [1]: inhibition | T cell proliferative responses induced by ConA [2]: but not ConA

CS(=O)(=O)N1CCc2c(c(-c3ccc(I)cc3)nn2CC(O)CN2CCN(c3ccccc3C#N)CC2)C1 (stereo not shown) [Example 36, 2-(4-{2-Hydroxy-3-[3-(4-iodo-phenyl)-5-methanesulfonyl-4,5,6,7-tetrahydro-pyrazolo[4,3-c]pyridin-1-yl]-propyl}-piperazin-1-yl)-benzonitrile]
human T cell proliferative responses to Der f [1]: inhibition | T cell proliferative responses induced by ConA [2]: but not ConA

CC(C)C[C@H](NC(=O)N1CCOCC1)C(=O)N[C@H](/C=C/S(=O)(=O)c1ccccc1)CCc1ccccc1 [LHVS, 4-morpholinecarboxamide, N-[(1S)-3-methyl-1-[[[(1S,2E)-1-(2-phenylethyl)-3-(phenylsulfonyl)-2-propenyl]amino]carbonyl]butyl]-]
T cell proliferation (3H-thymidine incorporation) induced by HDM extracts ([1]; PBMC of HDM-allergic donors, Der p or Der f extracts, FIG. 1B): strongly inhibited | T cell proliferation (3H-thymidine incorporation) induced by ragweed extracts [3]: strongly inhibited | T cell proliferative responses induced by ConA [2]: not affected | p10Ii fragment accumulation (block in the degradation of Ii) [4]: the p10Ii fragment was seen

C[C@]12C=CC(=O)C=C1CC[C@@H]1[C@@H]2C(=O)C[C@@]2(C)[C@H]1CC[C@]2(O)C(=O)CO [Prednisone, prednisone]
immediate weal and flare response ([5]; 15 min): inhibit both the immediate and the late phase responses | late phase response (induration) ([5]; 6 h and 24 h): inhibit both the immediate and the late phase responses
